Results: ChEMBL document CHEMBL1136356, “Rational design of antimicrobial agents: antifungal activity of alk(en)yl dihydroxybenzoates and dihydroxyphenyl alkanoates” (Bioorg Med Chem Lett, 2003)
≈ marks a conversion by molar mass, not a printed value.

Assays:
physchem = details: octanol/water
Description: Partition coefficient (logP)

Saccharomyces cerevisiae [1] = assay: microbe, parasite or virus in culture; details: ATCC 7754
Description: (§1) Antifungal activity against Saccharomyces cerevisiae ATCC 7754

Saccharomyces cerevisiae [2] = assay: microbe, parasite or virus in culture; details: ATCC 7754; remark: listed apart in the source
Description: as §1

Row | logP (physchem) | MIC (Saccharomyces cerevisiae [2]) | Structure (SMILES) | MFC (Saccharomyces cerevisiae [1])
1 | 4.22 | 6.25 µg/mL (≈ 22.5 µM) | CCCCCC/C=C/COC(=O)c1ccc(O)c(O)c1 | 6.25 µg/mL (≈ 22.5 µM)
2 | 3.84 | 12.5 µg/mL (≈ 43.1 µM) | CC(C)=CCC/C(C)=C\COC(=O)c1ccc(O)c(O)c1 | 25 µg/mL (≈ 86.1 µM)
3 | 3.57 | 12.5 µg/mL (≈ 49.5 µM) | CCCCCCCOC(=O)c1ccc(O)c(O)c1 [HEPTYL 3,4-DIHYDROXYBENZOATE] | 12.5 µg/mL (≈ 49.5 µM)
4 | 3.62 | 25 µg/mL (≈ 86.1 µM) | O=C(OC1CCC2CCCCC2C1)c1ccc(O)c(O)c1 (configuration not stated) | 25 µg/mL (≈ 86.1 µM)
5 | 3.84 | 12.5 µg/mL (≈ 43.1 µM) | CC(C)=CCC/C(C)=C/COC(=O)c1ccc(O)c(O)c1 | 12.5 µg/mL (≈ 43.1 µM)
6 | 5.24 | > 400 µg/mL | CCCCCCCCCCCOC(=O)c1ccc(O)c(O)c1 | > 400 µg/mL
7 | 4.3 | 25 µg/mL (≈ 89.2 µM) | CCCCCCCC(C)OC(=O)c1ccc(O)c(O)c1 (configuration not stated) | 25 µg/mL (≈ 89.2 µM)
8 | 4.4 | 6.25 µg/mL (≈ 22.3 µM) | CCCCCCCCCOC(=O)c1ccc(O)c(O)c1 [NONYL 3,4-DIHYDROXYBENZOATE] | 1.25 µg/mL (≈ 4.46 µM)
9 | 5.25 | > 400 µg/mL | CCCCCCCCCCCCOC(=O)c1cc(O)cc(O)c1O | > 400 µg/mL
10 | 4.37 | 12.5 µg/mL (≈ 44.6 µM) | CCCCCCC(CC)OC(=O)c1ccc(O)c(O)c1 (configuration not stated) | 12.5 µg/mL (≈ 44.6 µM)
11 | 3.05 | 50 µg/mL (≈ 200 µM) | O=C(OCC1CCCCC1)c1ccc(O)c(O)c1 | 50 µg/mL (≈ 200 µM)
12 | 3.58 | 50 µg/mL (≈ 177 µM) | CCCCCCCCOC(=O)c1cc(O)cc(O)c1O | 100 µg/mL (≈ 354 µM)
13 | 2.73 | 100 µg/mL (≈ 446 µM) | CCCCCOC(=O)c1ccc(O)c(O)c1 | 100 µg/mL (≈ 446 µM)
14 | 3.16 | 200 µg/mL (≈ 745 µM) | CCCCCCCOC(=O)c1cc(O)cc(O)c1O | 200 µg/mL (≈ 745 µM)
15 | 4 | 25 µg/mL (≈ 84.4 µM) | CCCCCCCCCOC(=O)c1cc(O)cc(O)c1O | 25 µg/mL (≈ 84.4 µM)
16 | 3.78 | 50 µg/mL (≈ 172 µM) | CC1(C)C2CCC1(C)C(OC(=O)c1ccc(O)c(O)c1)C2 (configuration not stated) | 50 µg/mL (≈ 172 µM)
17 | 1.9 | > 400 µg/mL | CCCOC(=O)c1ccc(O)c(O)c1 | > 400 µg/mL
18 | 2.32 | 200 µg/mL (≈ 951 µM) | CCCCOC(=O)c1ccc(O)c(O)c1 | 400 µg/mL (≈ 1900 µM)
19 | 5.67 | > 400 µg/mL | CCCCCCCCCCCCCOC(=O)c1cc(O)cc(O)c1O | > 400 µg/mL
20 | 4.42 | 12.5 µg/mL (≈ 40.3 µM) | CCCCCCCCCCOC(=O)c1cc(O)cc(O)c1O | 25 µg/mL (≈ 80.5 µM)
21 | 4.1 | 12.5 µg/mL (≈ 42.8 µM) | CC1CCC(C(C)C)C(OC(=O)c2ccc(O)c(O)c2)C1 (configuration not stated) | 12.5 µg/mL (≈ 42.8 µM)
22 | 3.99 | 6.25 µg/mL (≈ 23.5 µM) | CCCCCCCCOC(=O)c1ccc(O)c(O)c1 [OCTYL 3,4-DIHYDROXYBENZOATE] | 12.5 µg/mL (≈ 46.9 µM)
23 | 4.83 | 25 µg/mL (≈ 77.1 µM) | CCCCCCCCCCCOC(=O)c1cc(O)cc(O)c1O | 25 µg/mL (≈ 77.1 µM)
24 | 4.22 | 6.25 µg/mL (≈ 22.5 µM) | CCCCCC/C=C\COC(=O)c1ccc(O)c(O)c1 | 6.25 µg/mL (≈ 22.5 µM)
25 | 3.15 | 25 µg/mL (≈ 105 µM) | CCCCCCOC(=O)c1ccc(O)c(O)c1 [HEXYL 3,4-DIHYDROXYBENZOATE] | 25 µg/mL (≈ 105 µM)

Row | Structure (SMILES) | logP (physchem) | MIC (Saccharomyces cerevisiae [2]) | MFC (Saccharomyces cerevisiae [1])
26 | Clc1ccc(COC(Cn2ccnc2)c2ccc(Cl)cc2Cl)c(Cl)c1 (configuration not stated) [MICONAZOLE] | – | 6.25 µg/mL (≈ 15 µM) | 50 µg/mL (≈ 120 µM)
